{"source": "patent US20200113816A1", "about": "“REACTIONS TRIGGERED BY COOLING-INDUCED GEL-TO-SOL TRANSITION OF THERMORESPONSIVE POLYMERS” (Vanderbilt University, priority 2018, published 2020)", "system": "Sprague-Dawley rats", "experiment": "Neurobehavioral testing of nerve block, cooling-triggered local anesthesia", "type": "in vivo", "details": "injected, 15 mg/mL in sterile saline", "source_text": "Nile Red- or bupivacaine-loaded gels are implanted in adult Sprague-Dawley rats alongside a wireless temperature probe. Stability are characterized using dye-loaded formulations, with animals imaged daily to determine the extent to which the dye leaks from the gelled implant; quantitative data are derived from depletion of the Nile Red fluorescence signal. To characterize release, rats implanted with dye-loaded formulations are subjected to a cooling stimulus (ice applied to the skin while tissue temperature is remotely monitored), and subsequently imaged to determine the extent to which cooling triggers release of the sequestered compound in vivo as observed by decrease in the depot fluorescence intensity. Multiple cycles of cooling are performed (with a 24-hour recovery period between cycles) until no significant change in the fluorescence signal from the depot is observed. […] The difference between the duration of nerve blocks due to injection of bupivacaine solution and the duration of blocks caused by cooling-triggered release from an implanted device is determined. To investigate tissue response to the implanted devices, after the animals are sacrificed the tissue surrounding the sciatic nerve is removed, processed for histology (H&E staining), and analyzed via optical microscopy."}
{"smiles": "CCCCN1CCCCC1C(=O)Nc1c(C)cccc1C", "note": "(stereo not shown) [bupivacaine]", "values": [{"measurement": "baseline nerve block duration", "result": "~200", "unit": "min"}]}
